# [ ]: non-standard residue; d: D form. LYB = not defined here
# B1: AIF-1: precursor protein comprising the amino acid sequence represented by SEQ ID NO:1; purified after FXa cleavage of MBP fusion (protein, listed as Homo sapiens)
# chain: MSQTRDLQGGKAFGLLKAQQEERLDEINKQFLDDPKYSSDEDLPSKLEGFKEKYMEFDLNGNGDIDIMSLKRMLEKLGVPKTHLELKKLIGEVSSGSGETFSYPDFLRMMLGKRSAILKMILMYEEKAREKEKPTGPPAKKAISELP
# B2: AIF-2: precursor protein comprising the amino acid sequence represented by SEQ ID NO:5; purified after FXa cleavage of MBP fusion (protein, listed as Homo sapiens)
# chain: MSGELSNRFQGGKAFGLLKARQERRLAEINRELLCDQKYSDEENLPEKLTAFKEKYMEFDLNNEGEIDLMSLKRMMEKLGVPKTHLEMKKMISEVTGGVSDTISYRDFVNMMLGKRSAVLKLVMMFEGKANESSPKPVGPPPERDIASLP
# Experiments:
# Assay type in all cases: cell-based
# [1] = test system: spleen of an apoaequorin transgenic mouse; assay: Intracellular calcium (aequorin luminescence) in spleen pieces of apoaequorin transgenic mouse; conditions: for physiological activity (the activity found in Peptide 1 or Peptide 3): purified samples, method of Example 3
# Description: (§1) In order to evaluate physiological activities of the peptides prepared in Example 1, the prepared peptides were allowed to act upon organs excised from the living body, and changes in the concentration of an intracellular signal transduction substance in cells constituting the organs were measured.
# (§2) In order to measure changes in the concentration of an intracellular signal transduction substance in cells constituting the organs, a transgenic mouse prepared by integrated an apoaequorin gene expression vector into a chromosome was used. Specifically, a female mouse derived from the transgenic mouse disclosed in Reference Example 4 as an individual number 98075-04-6 was used in the test. The transgenic mouse was prepared and reared as an SPF animal in a clean room, and was not contaminated with pathogens including mouse hepatitis virus, Sendai virus, mycoplasma and Tyzzer bacterium.
# (§3) Aequorin is a bioluminescent protein complex which is present in the umbrella region of luminescent Aequorea victoria. Aequorin is constituted from its protein moiety apoaequorin, its luminescence substrate coelent razin and molecular oxygen, and emits light by its binding with calcium ion. Since expression of the apoaequorin protein has been confirmed in at least thymus, spleen, abdominal muscle, diaphragm, kidney, crystalline lens, pancreas, fat tissue, liver, skull, blood vessel, ovary, womb and adrenal gland of the transgenic mouse used in the test, it was able to monitor changes in the intracellular calcium ion concentration in these organs with a high sensitivity.
# (§4) Organs were prepared from offsprings borne from the female of individual number 98075-04-6 to examine the activities of the peptides produced in Example 1. After the offsprings were killed, the thymus, spleen, abdominal muscle, diaphragm, kidney, crystalline lens, pancreas, fat tissue, liver, skull, blood vessel, ovary, womb and adrenal gland were excised. Each of the excised organs was cut into small cubes of about 1 to 2 mm square in PBS containing 10 units/ml of heparin sodium and thoroughly washed by changing the solution. Next, three pieces of each of the organ samples thus prepared were put into a 5 ml capacity tube (Rohren-Tubes; No. 55.476, manufactured by Sarstedt) which had been charged with RPMI 1640 medium containing 200 μl of 10 μmol/l coelenterazine (manufactured by Molecular Probes), and cultured at 37° C. for 5 hours. Five hours after, various substances shown below dissolved in RPMI 1640 medium were added at 200 μl, and the luminescence was measured just after the addition at 1 second intervals using a luminometer AutoLumat LB953 (manufactured by BERTHOLD).
# Organs were prepared from offsprings borne from the female of individual number 98075-04-6 to examine the activities of the peptides produced in Example 1. After the offsprings were killed, the spleen was excised. The excised spleen was cut into small cubes of about 1 to 2 mm square in PBS containing 10 units/ml of heparin sodium and thoroughly washed by changing the solution. Next, three pieces of the prepared spleen sample were put into a 5 ml capacity tube (Rohren-Tubes; No. 55.476, manufactured by Sarstedt) which had been charged with RPMI 1640 medium containing 200 μl of 10 μmol/l coelenterazine (manufactured by Molecular Probes), and cultured at 37° C. for 5 hours. Five hours after, various substances shown below dissolved in RPMI 1640 medium were added at 200 μl, and the luminescence was measured just after the addition at 1 second intervals using a luminometer AutoLumat LB953 (manufactured by BERTHOLD).
# RPMI 1640, a peptide prepared in Example 1 (final concentration: 10 nmol/l), a peptide prepared in Example 1 (final concentration: 100 nmol/l), a peptide prepared in Example 1 (final concentration: 1 μmol/l), a peptide prepared in Example 1 (final concentration; 10 μmol/l), ATP (final concentration: 100 μmol/l), A23187 (final concentration: 1 μmol/l) and Triton X-100 (final concentration: 2%) were added in order. […]
# [2] = test system: blood vessel of an apoaequorin transgenic mouse; assay: Intracellular calcium (aequorin luminescence) in blood vessel pieces of apoaequorin transgenic mouse
# Description: as §1, §2, §3, §4
# [3] = test system: thymus of an apoaequorin transgenic mouse; assay: Intracellular calcium (aequorin luminescence) in thymus pieces of apoaequorin transgenic mouse
# Description: as §1
# In order to measure changes in the concentration of an intracellular signal transduction substance in cells constituting the organs, a transgenic mouse prepared by integrated an apoaequorin gene expression vector into a chromosome was used. Specifically, a female mouse derived from the transgenic mouse disclosed in Reference Example 4 as an individual number 98075-04-6 was used in the test. […]
# Aequorin is a bioluminescent protein complex which is present in the umbrella region of luminescent Aequorea victoria. Aequorin is constituted from its protein moiety apoaequorin, its luminescence substrate coelent razin and molecular oxygen, and emits light by its binding with calcium ion. […]
# Organs were prepared from offsprings borne from the female of individual number 98075-04-6 to examine the activities of the peptides produced in Example 1. […] Five hours after, various substances shown below dissolved in RPMI 1640 medium were added at 200 μl, and the luminescence was measured just after the addition at 1 second intervals using a luminometer AutoLumat LB953 (manufactured by BERTHOLD).
# [4] = test system: thymus, abdominal muscle, diaphragm, kidney, crystalline lens, pancreas, fat tissue, liver, blood vessel, ovary, womb and adrenal gland; assay: Intracellular calcium (aequorin luminescence) in organs other than the spleen and skull of apoaequorin transgenic mouse
# Description: In order to measure changes in the concentration of an intracellular signal transduction substance in cells constituting the organs, a transgenic mouse prepared by integrated an apoaequorin gene expression vector into a chromosome was used. […] The transgenic mouse was prepared and reared as an SPF animal in a clean room, and was not contaminated with pathogens including mouse hepatitis virus, Sendai virus, mycoplasma and Tyzzer bacterium.
# [5] = test system: skull (cranial bone) of an apoaequorin transgenic mouse; assay: Intracellular calcium (aequorin luminescence) in skull (cranial bone) pieces of apoaequorin transgenic mouse; conditions: final concentration 10 μmol/l
# Description: as §1, §2, §3, §4
# [6] = test system: spleen of an apoaequorin transgenic mouse; assay: Intracellular calcium (aequorin luminescence) in spleen pieces of apoaequorin transgenic mouse; conditions: final concentration 6 μmol/l
# [7] = 10 nmol/l, 100 nmol/l, 1 μmol/l, 10 μmol/l added in order
molecule,measurement,setting,value
Nc1ncnc2c1ncn2[C@@H]1O[C@H](COP(=O)(O)OP(=O)(O)OP(=O)(O)O)[C@@H](O)[C@H]1O [ATP],luminescence (intracellular calcium increase),[1]; final concentration 100 μmol/l,Strong luminescence
same,luminescence (intracellular calcium increase),[2]; final concentration 100 μmol/l,Strong luminescence
same,luminescence (intracellular calcium increase),[3]; final concentration 100 μmol/l,Strong luminescence
same,luminescence (intracellular calcium increase),[4]; final concentration 100 μmol/l,luminescence was observed
"CNc1ccc2oc(C[C@H]3O[C@@]4(CC[C@H]3C)O[C@H]([C@H](C)C(=O)c3ccc[nH]3)[C@H](C)C[C@H]4C)nc2c1C(=O)O [Peptide A23187, A23187]",luminescence (intracellular calcium increase),[4]; final concentration 1 μmol/l,luminescence was observed
C[N+](C)(C)CCOC(N)=O [carbachol],luminescence (intracellular calcium increase),[2]; final concentration 10 μmol/l,Strong luminescenc
CC[C@H](C)[C@H](NC(=O)[C@H](CC(=O)O)NC(=O)[C@H](CC(C)C)NC(=O)[C@H](Cc1c[nH]cn1)NC(=O)[C@@H]1CSSC[C@H](N)C(=O)N[C@@H](CO)C(=O)N[C@H]2CSSC[C@H](NC(=O)[C@H](CCC(=O)O)NC(=O)[C@H](CCCCN)NC(=O)[C@H](CC(=O)O)NC(=O)[C@H](CCSC)NC(=O)[C@H](CC(C)C)NC(=O)[C@H](CO)NC(=O)[C@H](CO)NC2=O)C(=O)N[C@@H](C(C)C)C(=O)N[C@@H](Cc2ccc(O)cc2)C(=O)N[C@@H](Cc2ccccc2)C(=O)N1)C(=O)N[C@H](C(=O)N[C@@H](Cc1c[nH]c2ccccc12)C(=O)O)[C@@H](C)CC [endothelin],luminescence (intracellular calcium increase),[2]; final concentration 10 nmol/l,Strong luminescence
CNC[C@H](O)c1cccc(O)c1 [phenylephrine],luminescence (intracellular calcium increase),[2]; final concentration 20 μmol/l,Strong luminescence
same,luminescence (intracellular calcium increase),[3]; final concentration 20 μmol/l,Strong luminescence
H-Leu-Ile-Arg-Glu-Val-Ser-Ser-Gly-Ser-Glu-Glu-Thr-Phe-Ser-Tyr-Ser-Asp-Phe-Leu-Arg-Met-Met-Leu-NH2 (H-LIREVSSGSEETFSYSDFLRMML-NH2) [Peptide 2 short],final concentration from which concentration-dependent luminescence was observed,[1]; [7],1 µmol/L
same,activity maintained relative to the activity of Peptide 2,[1]; fraction of Peptide 2 activity,1/10
H-Leu-Ser-Pro-His-Thr-Lys-Leu-Ser-Tyr-Arg-Glu-Glu-Val-Phe-Leu-Arg-Leu-Ser-Lys-Ser-Glu-Gly-Leu-Met-Glu-Ile-LYB-Leu-Met-Glu-Asp-Leu-Met-val-Phe-Ser-Arg-Thr-Gly-NH2 (H-LSPHTKLSYREEVFLRLSKSEGLMEI[LYB]LMEDLM[dV]FSRTG-NH2; reading uncertain) [Peptide 2S],luminescence (intracellular calcium increase),[1]; final concentration 10 μmol/l,not detected
same,luminescence (intracellular calcium increase),[5],not detected
H-Leu-Ser-Pro-His-Thr-Lys-Leu-Ser-Tyr-Gly-Glu-Gly-Val-Phe-Leu-Arg-Leu-Ser-Lys-Ser-Glu-Gly-Leu-Met-Glu-Ile-Lys-Leu-Met-Glu-Asp-Leu-Met-Val-Phe-Pro-Lys-Thr-Gly-NH2 (H-LSPHTKLSYGEGVFLRLSKSEGLMEIKLMEDLMVFPKTG-NH2) [Peptide 1S],luminescence (intracellular calcium increase),[1]; final concentration 10 μmol/l,not detected
same,luminescence (intracellular calcium increase),[5],not detected
H-Met-Leu-Glu-Lys-Leu-Gly-Val-Pro-Lys-Thr-His-Leu-Glu-Leu-Lys-Arg-Leu-Ile-Arg-Glu-Val-Ser-Ser-Gly-Ser-Glu-Glu-Thr-Phe-Ser-Tyr-Ser-Asp-Phe-Leu-Arg-Met-Met-Leu-NH2 (H-MLEKLGVPKTHLELKRLIREVSSGSEETFSYSDFLRMML-NH2) [Peptide 2],final concentration from which concentration-dependent luminescence was observed,[1]; [7],0.1 µmol/L
same,luminescence (intracellular calcium increase),[1]; final concentration 10 μmol/l,Strong luminescence
same,luminescence (intracellular calcium increase),[5],Strong luminescence
H-Met-Leu-Glu-Lys-Leu-Gly-Val-Pro-Lys-Thr-His-Leu-Glu-Leu-Lys-Lys-Leu-Ile-Gly-Glu-Val-Ser-Ser-Gly-Ser-Gly-Glu-Thr-Phe-Ser-Tyr-Pro-Asp-Phe-Leu-Arg-Met-Met-Leu-NH2 (H-MLEKLGVPKTHLELKKLIGEVSSGSGETFSYPDFLRMML-NH2) [Peptide 1],concentration at which luminescence accompanied by the increased intracellular calcium was observed,[1]; [7],10 µmol/L
same,luminescence (intracellular calcium increase),[1]; final concentration 10 μmol/l,Strong luminescence
same,luminescence (intracellular calcium increase),[5],Strong luminescence
same,luminescence (intracellular calcium increase),[6],Strong luminescence
H-Val-Thr-Pro-His-Thr-Lys-Leu-Val-Tyr-Ser-Glu-Ser-Val-Ile-Met-Asn-Met-Ser-Lys-Gly-Glu-Gly-Leu-Met-Glu-Ile-Lys-Leu-Met-Asp-Asp-Met-Met-Thr-Phe-Arg-Lys-val-Gly-NH2 (H-VTPHTKLVYSESVIMNMSKGEGLMEIKLMDDMMTFRK[dV]G-NH2; SMILES CC[C@H](C)[C@H](NC(=O)[C@H](CCC(=O)O)NC(=O)[C@H](CCSC)NC(=O)[C@H](CC(C)C)NC(=O)CNC(=O)[C@H](CCC(=O)O)NC(=O)CNC(=O)[C@H](CCCCN)NC(=O)[C@H](CO)NC(=O)[C@H](CCSC)NC(=O)[C@H](CC(N)=O)NC(=O)[C@H](CCSC)NC(=O)[C@@H](NC(=O)[C@@H](NC(=O)[C@H](CO)NC(=O)[C@H](CCC(=O)O)NC(=O)[C@H](CO)NC(=O)[C@H](Cc1ccc(O)cc1)NC(=O)[C@@H](NC(=O)[C@H](CC(C)C)NC(=O)[C@H](CCCCN)NC(=O)[C@@H](NC(=O)[C@H](Cc1c[nH]cn1)NC(=O)[C@@H]1CCCN1C(=O)[C@@H](NC(=O)[C@@H](N)C(C)C)[C@@H](C)O)[C@@H](C)O)C(C)C)C(C)C)[C@@H](C)CC)C(=O)N[C@@H](CCCCN)C(=O)N[C@@H](CC(C)C)C(=O)N[C@@H](CCSC)C(=O)N[C@@H](CC(=O)O)C(=O)N[C@@H](CC(=O)O)C(=O)N[C@@H](CCSC)C(=O)N[C@@H](CCSC)C(=O)N[C@H](C(=O)N[C@@H](Cc1ccccc1)C(=O)N[C@@H](CCCNC(=N)N)C(=O)N[C@@H](CCCCN)C(=O)N[C@@H](C(=O)NCC(N)=O)C(C)C)[C@@H](C)O) [Peptide 3S],luminescence (intracellular calcium increase),[1]; final concentration 10 μmol/l,not detected
same,luminescence (intracellular calcium increase),[5],not detected
Triton X-100,luminescence,[4]; final concentration 2%,luminescence was observed
B1,physiological activity (the activity found in Peptide 1 or Peptide 3),[1],not observed
B2,physiological activity (the activity found in Peptide 1 or Peptide 3),[1],not observed

# From patent US20040081972A1, “Novel physiologically active peptide and use thereof” (priority 2000, published 2004)
